Our source for the GI50 and TGI values is PubChem BioAssay (NCI).

What all share (assay): DTP human tumour cell line panel, 48 h
Test [1] relates to MOLT-4 leukemia.
Test [2] concerns A549 NSCLC.
The subject of test [3] is OVCAR-3 ovarian.
The test system of test [4] is SN12C renal.
Test [5] concerns SW-620 colon.
In test [6] the test system is RPMI-8226 leukemia.
Test [7] deals with EKVX NSCLC.
Test [8] deals with M14 melanoma.
The subject of test [9] is MDA-MB-435.
In test [10] the test system is IGROV1 ovarian.

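Cells were grown in 96-well plates and exposed to each compound for 48 hours at five concentrations; endpoints were interpolated linearly between bracketing concentrations, or set to the highest concentration if not reached. At the GI50, growth is halved. TGI is the concentration that stops growth completely.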

Turning to `C[C@]12CC/C(=N\N)C[C@@H]1CC[C@@H]1[C@@H]2CC[C@]2(C)/C(=N/N)CC[C@@H]12`, the GI50 in test [1], in test [2], in test [3], in test [4], in test [5] and in test [6] was > 100 µM in each case. Also, the GI50 in [7], in test [8], in test [9] and in test [10] was > 100 µM in each case. In addition, the TGI in test [1], in [2], in [3], in test [4], in test [5] and in test [6] was > 100 µM each time. Moreover, the TGI in test [7], in test [8], in test [9] and in [10] was > 100 µM each time.
With `C=C1C(=O)O[C@H]2[C@H]1CC/C(CNS(=O)(=O)c1ccc3ccccc3c1)=C\CC[C@@]1(C)O[C@@H]21`, the GI50 in test [1] was 1.56 µM; in test [2] it was 10.9 µM; in test [3], 0.805 µM; in test [4] it was 2.15 µM; in test [5], 1.01 µM; in test [6], 1.46 µM. The GI50 was 2.48 µM in [7], 1.57 µM in test [8], 2.35 µM in test [9] and 2.87 µM in test [10]. The TGI worked out at 4.71 µM in [1]; 25 µM in [2]; 2.12 µM in test [3]; 7.13 µM in test [4]; 2.44 µM in test [5]; 4.5 µM in [6]. Further, the TGI amounted to 11.1 µM in [7], 3.49 µM in [8], 7.37 µM in test [9] and 8.2 µM in test [10].
On to `C=C1C(=O)O[C@H]2[C@H]1CC/C(CNC(=O)/C=C/c1cccc(OC)c1)=C\CC[C@@]1(C)O[C@@H]21`, for which the GI50 in [1] was 2.12 µM; in [2], 5.11 µM; in test [3], 1.1 µM; in [4] it was 1.53 µM; in test [5] it was 0.958 µM; in test [6], 1.31 µM. Further, the GI50 in test [7] was 1.85 µM; in [8] it was 1.42 µM; in test [9], 1.53 µM; in test [10] it was 1.96 µM. Moreover, the TGI in test [1] was 7.36 µM; in test [2], 20.3 µM; in test [3], 2.45 µM; in test [4], 4.34 µM; in test [5] it was 2.33 µM; in test [6] it was 4.97 µM. Moreover, the TGI in [7] was found to be 5.62 µM; in [8], 3.11 µM; in test [9] it was 5.04 µM; in test [10], 5.3 µM.
Consider `O=CN1N=C(c2ccc(Nc3ccnc4cc(Cl)ccc34)cc2)CC1c1ccccc1` (stereo not given), for which the GI50 in [1] is 2.28 µM; in test [2], 4.05 µM; in test [3], 2.78 µM; in test [4], 3.8 µM; in [5] it was 2.73 µM; in test [6] it was 2.55 µM. Also, the GI50 is 4.94 µM in test [7], 4.12 µM in test [8], 1.59 µM in test [9] and 9.36 µM in test [10]. Moreover, the TGI in [1] is 6.4 µM; in test [2], > 100 µM; in test [3] it was 7.71 µM; in [4], > 100 µM; in test [5], 9.43 µM; in test [6] it was 12.3 µM. The TGI in [7] is > 100 µM; in test [8] it was 31 µM; in [9], 4.67 µM; in test [10], > 100 µM.
Consider `O=c1[nH]cnc2c1nnn2C1OC(CO)C(O)C1O` (stereo not given), for which the GI50 in test [1] was 2.44 µM; in test [2], 29.1 µM; in [3], 0.816 µM; in [4], 6.57 µM; in test [5], 1.69 µM; in test [6], 1.33 µM. Further, the GI50 in test [7] was 60.4 µM; in test [8], 1.84 µM; in test [9], 3.51 µM; in [10] it was 1.27 µM. In addition, the TGI in [1] was > 100 µM; in test [2] it was > 100 µM; in test [3], 4.98 µM; in [4], > 100 µM; in test [5] it was > 100 µM; in [6], 21.5 µM. The TGI in test [7] was > 100 µM; in test [8] it was > 56.2 µM; in test [9], > 100 µM; in test [10] it was > 57.7 µM.
Turning to `Cc1[nH]c(C(=O)Nc2ccc(C(=O)N3CCNCC3)cc2OC(C)C)c(Cl)c1Cl`, the GI50 was 2.32 µM in test [1]; 2.19 µM in [3]; 1.94 µM in test [4]; 1.9 µM in [5]; 2.31 µM in [6]; 3.49 µM in [7]. The figures for the GI50 in test [8], in [9] and in test [10] were 1.94 µM, 1.76 µM and 1.58 µM, respectively. Moreover, the concentration for total growth inhibition (TGI) in [1] amounted to 5.1 µM; in [3], 4.62 µM; in [4] it was 4.28 µM; in test [5], 3.59 µM; in test [6], 5.51 µM; in [7] it was 15 µM. Besides, the TGI was found to be 3.57 µM in [8], 3.23 µM in [9] and 3.49 µM in [10].
As for `O=C(Nc1c(Cl)cc([N+](=O)[O-])cc1Cl)C(=O)C1C(=O)NC(=S)NC1=O`, the TGI in [2], in test [3], in test [4], in test [5], in test [6] and in test [7] was > 100 µM throughout. The TGI in test [8], in test [9] and in [10] was > 100 µM throughout.
As for `NC(N)=N/N=C/c1c(-c2cccs2)nc2sccn12`, the GI50 was 8.48 µM in test [1]; 21.7 µM in test [2]; 3.66 µM in test [3]; 13.4 µM in test [4]; 12.8 µM in [5]; 12.6 µM in test [6]. The GI50 in [7] is 6.32 µM; in test [8], 16.6 µM; in test [9] it was 13.2 µM. The TGI in [1] is 36.3 µM; in [2], 45.1 µM; in test [3], 18.1 µM; in test [4] it was 26.9 µM; in test [5], 28.2 µM; in [6], > 100 µM. Further, the concentration for total growth inhibition (TGI) in test [7] is 19.1 µM; in test [8], 30.2 µM; in [9], 25.9 µM.
